From patent US20140221340A1 (KYOWA HAKKO KIRIN CO., LTD., priority 2011, published 2014)

Target: T1, human CCR10 (Homo sapiens, UniProt P46092)
T1 construct: expressed in transfected cells; host or cells: KJMGER8 cell (cell line derived from Namalwa cell); expression induced with 10 nmol/L β-estradiol
T1 sequence (P46092 1-362): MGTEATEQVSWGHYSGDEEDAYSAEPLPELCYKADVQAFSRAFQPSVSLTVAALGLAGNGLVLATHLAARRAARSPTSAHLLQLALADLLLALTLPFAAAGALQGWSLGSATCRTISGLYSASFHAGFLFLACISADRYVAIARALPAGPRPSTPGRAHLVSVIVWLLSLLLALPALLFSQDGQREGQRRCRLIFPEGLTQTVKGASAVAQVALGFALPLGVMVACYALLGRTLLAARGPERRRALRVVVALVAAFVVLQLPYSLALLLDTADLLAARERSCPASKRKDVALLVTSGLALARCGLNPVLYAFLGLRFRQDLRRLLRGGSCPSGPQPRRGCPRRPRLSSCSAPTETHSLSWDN
Experiment: Calcium assay of human CCR10 (inhibition of CTACK-induced increase in intracellular calcium ion concentration in hCCR10G16 cells)
Type: cell-based
Conditions: test compound 100 nmol/L; human recombinant CTACK; hCCR10G16 cells (KJMGER8/Namalwa-derived, Gα16 co-expressed); FLIPR or FDSS; read-out: Inhibitory rate (%) for an increase in calcium ion concentration
Experimental: A CCR10-inducible expression plasmid was produced according to a known method (“Analytical Biochemistry”, 2006, vol. 400, page 163). A DNA encoding human CCR10 was obtained by PCR. Using human chromosomal DNA (100 ng; manufactured by Clontech Laboratories, Inc.) as a template, a synthetic DNA having the sequences shown by SEQ ID NOs: 1 and 2 as a human CCR10 cDNA specific primer, and Pyrobest DNA Polymerase (manufactured by TAKARA SHUZO CO. LTD.) as an enzyme, a DNA encoding human CCR10 was obtained by PCR. As a buffer solution for PCR, the buffer solution attached to the enzyme was diluted 10-fold with deionized water and used. Using Thermal Cycler DNA Engine (manufactured by MJ Research), PCR was performed by 35 cycles of reactions composed of an incubation at 90° C. for 2 min, at 94° C. for 30 seconds, at an anneal temperature of 58° C. for 30 seconds, and at 72° C. for 1 min.
The amplified PCR fragment was cleaved with HindIII and NotI, then a human CCR10 DNA fragment was recovered by an agarose gel electrophoresis method. The fragment was incorporated in between the corresponding restriction enzyme sites (HindIII-NotI) of an inducible expression vector, whereby a human CCR10-inducible expression plasmid were prepared.
Using a primer specific to the sequence of the plasmid (synthetic DNA having the sequences shown by SEQ ID NOs: 3 and 4), the sequence of human CCR10 DNA region was determined. For the determination of the base sequence, DNA sequencer 377 (manufactured by PerkinElmer) and a reaction kit (ABI Prism (registered trade mark) BigDye (registered trade mark) Terminator Cycle Sequencing Ready Reaction kit: manufactured by Applied Biosystems) were used. The sequence of human CCR10 DNA matched with the sequence (NM_016602) registered in GenBank.
Cells for the detection of the signal from human CCR10 by a calcium assay were prepared. Human CCR10-inducible expressing cells whose host cell is KJMGER8 cell (cell line derived from Namalwa cell) were prepared according to a known method (“Analy Biochem”, 2006, vol. 400, page 163). Human CCR10-inducible expression plasmid produced above and Gα16 expression plasmid were co-transfected into KJMGER8 cell by an electroporation method (“Cytotechnology”, 1990, vol. 3, page 133), whereby a signal from human CCR10 could be detected by a calcium assay (hereinafter to be referred to as hCCR10G16 cell). Gα16 expression plasmid was produced by incorporating human Gα16 DNA into expression vector pAMoh (WO03/087366). Induced expression of human CCR10 was performed by cultivating hCCR10G16 cells in the presence of 10 nmol/L β-estradiol (manufactured by Sigma Ltd.) for 24 hr.
Cells expressing human CCR10 induced by the above-mentioned method were suspended in RPMI1640 medium and adjusted to cell density of 1.25×10^6 cells/mL. This mixture was dispensed to a 384 well clear bottom plate (manufactured by Corning Incorporated) at 20 μL/well, and these were incubated at 37° C. for several dozen minutes. A loading buffer prepared according to the protocol attached to FLIPR Calcium 3 assay kit (manufactured by Molecular Device) was dispensed to this plate at 20 μL/well, and the plate was incubated at 37° C. for 60 min. A 33 μmol/L DMSO solution of the test compound was diluted 37-fold with RPMI1640 medium and the resulting solution was added at 5 μL/well, and the mixture was incubated at 37° C. for 30 min. 300 nmol/L human recombinant CTACK (manufactured by R and D Systems) diluted with RPMI1640 medium containing 1 w/v % bovine serum albumin was added at 5 μL/well. Change of the intracellular calcium ion concentration for about 5 min after the addition was measured by FLIPR (manufactured by Molecular Device) or FDSS (manufactured by Hamamatsu Photonics K.K.). The difference between the maximum fluorescence intensity and the minimum fluorescence intensity for 5 min was calculated, and taken as the measurement value (maximum fluorescence intensity−minimum fluorescence intensity). […]

Row | inhibition at 0.1 µM [%] | SMILES
1 | > 100 | CCC(=O)NS(=O)(=O)c1cnn2c(Nc3cc(C)ccc3Cl)c(C(=O)N3CCC4(CC3)OCc3ccccc34)cnc12 [a-56, N-{7-(2-Chloro-5-methylphenylamino)-6-[3H-spiro(isobenzofuran-1,4′-piperidine)-1′-carbonyl]pyrazolo[1,5-a]pyrimidin-3-ylsulfonyl}propionamide]
2 | > 100 | Cc1cc(F)ccc1Nc1c(C(=O)N2CCC(c3ccc(F)cc3)CC2)cnc2c(S(=O)(=O)NCC(F)(F)F)cnn12 [a-4, 7-(4-Fluoro-2-methylphenylamino)-6-[4-(4-fluorophenyl)piperidine-1-carbonyl]-N-(2,2,2-trifluoroethyl)pyrazolo[1,5-a]pyrimidine-3-sulfonamide]
3 | > 100 | Cc1ccc(Cl)c(Nc2c(C(=O)N3CCC(c4ccc(F)cc4)CC3)cnc3c(S(=O)(=O)NC(N)=O)cnn23)c1 [a-77, N-Carbamoyl-7-(2-chloro-5-methylphenylamino)-6-[4-(4-fluorophenyl)piperidine-1-carbonyl]pyrazolo[1,5-a]pyrimidine-3-sulfonamide]
4 | 92.4 | CCNC(=O)NS(=O)(=O)c1cnn2c(Nc3ccccc3Cl)c(C(=O)N3CCC(c4ccccc4)CC3)cnc12 [a-7, 7-(2-Chlorophenylamino)-N-(ethylcarbamoyl)-6-(4-phenylpiperidine-1-carbonyl)pyrazolo[1,5-a]pyrimidine-3-sulfonamide]
5 | > 100 | CCNS(=O)(=O)c1cnn2c(Nc3ccc(F)cc3C)c(C(=O)N3CCC(c4ccccc4)CC3)cnc12 [a-2, N-Ethyl-7-(4-fluoro-2-methylphenylamino)-6-(4-phenylpiperidine-1-carbonyl)pyrazolo[1,5-a]pyrimidine-3-sulfonamide]
6 | > 100 | CCNC(=O)NS(=O)(=O)c1cnn2c(Nc3ccc(C)cc3F)c(C(=O)N3CCC4(CC3)OCc3ccccc34)cnc12 [a-49, 7-(2-Fluoro-4-methylphenylamino)-N-(ethylcarbamoyl)-6-[3H-spiro(isobenzofuran-1,4′-piperidine)-1′-carbonyl]pyrazolo[1,5-a]pyrimidine-3-sulfonamide]
7 | > 100 | CC(=O)NS(=O)(=O)c1cnn2c(Nc3cc(C)ccc3Cl)c(C(=O)N3CCC4(CC3)OCc3ccccc34)cnc12 [a-55, N-{7-(2-Chloro-5-methylphenylamino)-6-[3H-spiro(isobenzofuran-1,4′-piperidine)-1′-carbonyl]pyrazolo[1,5-a]pyrimidin-3-ylsulfonyl}acetamide]
8 | 28.9 | COCCNS(=O)(=O)c1cnn2c(Nc3ccccc3Cl)c(C(=O)N3CCC(c4ccc(F)cc4)CC3)cnc12 [a-11, 7-(2-Chlorophenylamino)-6-[4-(4-fluorophenyl)piperidine-1-carbonyl]-N-(2-methoxyethyl)pyrazolo[1,5-a]pyrimidine-3-sulfonamide]
9 | > 100 | O=C(c1cnc2c(S(=O)(=O)Nc3ncccn3)cnn2c1Nc1cc(Cl)ccc1Cl)N1CCC(c2ccc(F)cc2)CC1 [a-80, 7-(2,5-Dichlorophenylamino)-6-[4-(4-fluorophenyl)piperidine-1-carbonyl]-N-(pyrimidin-2-yl)pyrazolo[1,5-a]pyrimidine-3-sulfonamide]
10 | 92 | CCNC(=O)NS(=O)(=O)c1cnn2c(Nc3ccc(F)cc3C)c(C(=O)N3CCC4(CC3)OCc3ccccc34)cnc12 [a-43, 7-(4-Fluoro-2-methylphenylamino)-N-(ethylcarbamoyl)-6-[3H-spiro(isobenzofuran-1,4′-piperidine)-1′-carbonyl]pyrazolo[1,5-a]pyrimidine-3-sulfonamide]
11 | > 100 | CCN(CC)S(=O)(=O)c1cnn2c(Nc3ccc(F)cc3C)c(C(=O)N3CCC(c4ccccc4)CC3)cnc12 [a-62, N,N-Diethyl-7-(4-fluoro-2-methylphenylamino)-6-(4-phenylpiperidine-1-carbonyl)pyrazolo[1,5-a]pyrimidine-3-sulfonamide]
12 | 58.8 | CNCC(=O)NS(=O)(=O)c1cnn2c(Nc3ccc(F)cc3C)c(C(=O)N3CCC(c4ccccc4)CC3)cnc12 [a-63, N-[7-(4-Fluoro-2-methylphenylamino)-6-(4-phenylpiperidine-1-carbonyl)pyrazolo[1,5-a]pyrimidin-3-ylsulfonyl]-2-methylaminoacetamide]
13 | > 100 | CCC(=O)NS(=O)(=O)c1cnn2c(Nc3ccc(F)cc3Cl)c(C(=O)N3CCC4(CC3)OCc3ccccc34)cnc12 [a-50, N-{7-(2-Chloro-4-fluorophenylamino)-6-[3H-spiro(isobenzofuran-1,4′-piperidine)-1′-carbonyl]pyrazolo[1,5-a]pyrimidin-3-ylsulfonyl}propionamide]
14 | > 100 | Cc1ccc(Cl)c(Nc2c(C(=O)N3CCC(c4ccc(F)cc4)CC3)cnc3c(S(=O)(=O)NC(=O)NC4CC4(F)F)cnn23)c1 (stereo not shown) [a-37, 7-(2-Chloro-5-methylphenylamino)-N-(2,2-difluorocyclopropylcarbamoyl)-6-[4-(4-fluorophenyl)piperidine-1-carbonyl]pyrazolo[1,5-a]pyrimidine-3-sulfonamide]
15 | > 100 | CCC(=O)NS(=O)(=O)c1cnn2c(Nc3cc(Cl)ccc3Cl)c(C(=O)N3CCC4(CC3)OCc3ccccc34)cnc12 [a-53, N-{7-(2,5-Dichlorophenylamino)-6-[3H-spiro(isobenzofuran-1,4′-piperidine)-1′-carbonyl]pyrazolo[1,5-a]pyrimidin-3-ylsulfonyl}propionamide]
16 | > 100 | CCC(=O)NS(=O)(=O)c1cnn2c(Nc3cc(C)c(F)cc3Cl)c(C(=O)N3CCC(c4ccc(F)cc4)CC3)cnc12 [a-40, N-{7-(2-Chloro-4-fluoro-5-methylphenylamino)-6-[4-(4-fluorophenyl)piperidine-1-carbonyl]pyrazolo[1,5-a]pyrimidin-3-ylsulfonyl}propionamide]
17 | 85.9 | Cc1cc(F)ccc1Nc1c(C(=O)N2CCC(c3ccccc3)CC2)cnc2c(S(=O)(=O)NC(=O)N3CCOCC3)cnn12 [a-68, N-[7-(4-Fluoro-2-methylphenylamino)-6-(4-phenylpiperidine-1-carbonyl)pyrazolo[1,5-a]pyrimidin-3-ylsulfonyl]morpholine-4-carboxamide]
18 | 63.7 | Cc1cc(F)ccc1Nc1c(C(=O)N2CCC(c3ccccc3)CC2)cnc2c(S(=O)(=O)NC(=O)Nc3ccccc3)cnn12 [a-67, 7-(4-Fluoro-2-methylphenylamino)-N-phenylcarbamoyl-6-(4-phenylpiperidine-1-carbonyl)pyrazolo[1,5-a]pyrimidine-3-sulfonamide]
19 | 75.3 | Cc1ccc(Cl)c(Nc2c(C(=O)N3CCC4(CC3)OCc3ccccc34)cnc3c(S(=O)(=O)NC(=O)NCC(F)(F)F)cnn23)c1 [a-82, 7-(2-Chloro-5-methylphenylamino)-6-[3H-spiro(isobenzofuran-1,4′-piperidine)-1′-carbonyl]-N-(2,2,2-trifluoroethylcarbamoyl)pyrazolo[1,5-a]pyrimidine-3-sulfonamide]
